Assay results reported in patent US8192962B2, “Processes for detecting toxic substances” (Daikin Industries, Ltd., priority 2001, dated 2012).

System: Energy system protein genes
Assay: DNA chip mRNA expression in yeast, energy system protein genes (Table 4)
Type: cell-based, Saccharomyces cerevisiae S288C
Experimental: Yeast (Saccharomyces cerevisiae S288C (α SUC2mal mel gap2 CUP1)) were incubated at 25° C. on YPD medium (yeast extract 1%, polypepton 2%, glucose 2%). One of toxic chemical substances was added to the cells at logarithmic growth phase, and the cells were further incubated for two hours. Cells were cultured without any chemical substance in the same condition, and were used as control. Concentrations of the chemical substances were defined to inhibit the growth of the yeast but not lead to death.
After completion of the incubation, the culture was centrifuged to collect the cells. To the cells, sodium acetate buffer (50 mM sodium acetate, 10 mM EDTA, 1% SDS) was added, and the mixture was shaken at 65° C. for five minutes, followed by returning to room temperature, and obtaining the supernatant, of which the procedures were repeated two times. To the supernatant, ½ amount of a solution of phenol/chloroform was added, and the mixture was centrifuged to give a supernatant, which was added with an equal amount of chloroform, and the mixture was centrifuged to give a supernatant. To the supernatant, an equal amount of isopropanol containing 0.3 M sodium acetate was added, and the mixture was allowed to stand at room temperature for 30 minutes, after which the mixture was centrifuged to give a sediment of the whole RNAs. Seventy % ethanol was added to the sediment, and the mixture was again centrifuged to give a sediment, which was then dried and dissolved in water. mRNA was isolated from the whole RNAs as followings. In view of the fact that a poly A chain is attached to the 3′ terminus of mRNA, a polynucleotide having a poly T structure which was immobilized on the surface of latex beads was used to trap the mRNA, and then the mRNA was washed and eluted with spine column (Oligotex-dT30<Super>mRNA Purification Kit, Takara). Reverse transcription of the mRNA was conducted with a reverse transcriptase (Super Script II Reverse Transcriptase; catalogue No. 18064-014, GibcoBRL) using fluorescence-labeled nucleotides to give cDNAs that were introduced with Cy3-dUTP or Cy5-dUTP during the reverse transcription.
The labeled cDNAs were dissolved in TE buffer (10mM Tris-HCl/1 mM EDTA, pH8.0), and the solution was dropped on the DNA chip containing the whole genes of yeast (DNA Chip Research Inc. Japan) so that the cDNAs were hybridized on the DNA chip at 65° C. for over 12 hours. The fluoresces intensity of the DNA chip was read with a scanner, and the ratio relative to the fluorescence intensity resulting from the absence of chemical substance was estimated as the following, which is shown in Tables 1 to 9: […]

[Cl][Cd][Cl] [(2), CdCl2]
The level of expressed mRNA in the presence of chemical substance/The level of expressed mRNA in the absence of chemical substance (yeast gene YAL060W): 1.8
The level of expressed mRNA in the presence of chemical substance/The level of expressed mRNA in the absence of chemical substance (yeast gene YBL058W, cells incubated two hours with the chemical substance): 1.5
The level of expressed mRNA in the presence of chemical substance/The level of expressed mRNA in the absence of chemical substance (yeast gene YBL099W, cells incubated two hours with the chemical substance): 0.9
The level of expressed mRNA in the presence of chemical substance/The level of expressed mRNA in the absence of chemical substance (yeast gene YBR001C, cells incubated two hours with the chemical substance): 1.4
The level of expressed mRNA in the presence of chemical substance/The level of expressed mRNA in the absence of chemical substance (yeast gene YBR185C, cells incubated two hours with the chemical substance): 1.0
The level of expressed mRNA in the presence of chemical substance/The level of expressed mRNA in the absence of chemical substance (yeast gene YBR221C, cells incubated two hours with the chemical substance): 0.7
The level of expressed mRNA in the presence of chemical substance/The level of expressed mRNA in the absence of chemical substance (yeast gene YCL040W): 5.6
The level of expressed mRNA in the presence of chemical substance/The level of expressed mRNA in the absence of chemical substance (yeast gene YCR012W): 1.5
The level of expressed mRNA in the presence of chemical substance/The level of expressed mRNA in the absence of chemical substance (yeast gene YCR046C, cells incubated two hours with the chemical substance): 1.2
The level of expressed mRNA in the presence of chemical substance/The level of expressed mRNA in the absence of chemical substance (yeast gene YCR105W, cells incubated two hours with the chemical substance): 1.2
The level of expressed mRNA in the presence of chemical substance/The level of expressed mRNA in the absence of chemical substance (yeast gene YDL021W): 1.7
The level of expressed mRNA in the presence of chemical substance/The level of expressed mRNA in the absence of chemical substance (yeast gene YDL067C, cells incubated two hours with the chemical substance): 1.0
The level of expressed mRNA in the presence of chemical substance/The level of expressed mRNA in the absence of chemical substance (yeast gene YDL078C, cells incubated two hours with the chemical substance): 1.1
The level of expressed mRNA in the presence of chemical substance/The level of expressed mRNA in the absence of chemical substance (yeast gene YDL107W, cells incubated two hours with the chemical substance): 1.3
The level of expressed mRNA in the presence of chemical substance/The level of expressed mRNA in the absence of chemical substance (yeast gene YDL174C): 1.8
The level of expressed mRNA in the presence of chemical substance/The level of expressed mRNA in the absence of chemical substance (yeast gene YDL181W, cells incubated two hours with the chemical substance): 1.8
The level of expressed mRNA in the presence of chemical substance/The level of expressed mRNA in the absence of chemical substance (yeast gene YDR001C): 2.2
The level of expressed mRNA in the presence of chemical substance/The level of expressed mRNA in the absence of chemical substance (yeast gene YDR050C, cells incubated two hours with the chemical substance): 1.3
The level of expressed mRNA in the presence of chemical substance/The level of expressed mRNA in the absence of chemical substance (yeast gene YDR079W, cells incubated two hours with the chemical substance): 1.1
The level of expressed mRNA in the presence of chemical substance/The level of expressed mRNA in the absence of chemical substance (yeast gene YDR178W, cells incubated two hours with the chemical substance): 2.0
The level of expressed mRNA in the presence of chemical substance/The level of expressed mRNA in the absence of chemical substance (yeast gene YDR231C): 1.6
The level of expressed mRNA in the presence of chemical substance/The level of expressed mRNA in the absence of chemical substance (yeast gene YDR298C, cells incubated two hours with the chemical substance): 1.2
The level of expressed mRNA in the presence of chemical substance/The level of expressed mRNA in the absence of chemical substance (yeast gene YDR377W, cells incubated two hours with the chemical substance): 1.1
The level of expressed mRNA in the presence of chemical substance/The level of expressed mRNA in the absence of chemical substance (yeast gene YDR529C, cells incubated two hours with the chemical substance): 1.0
The level of expressed mRNA in the presence of chemical substance/The level of expressed mRNA in the absence of chemical substance (yeast gene YEL024W, cells incubated two hours with the chemical substance): 0.9
The level of expressed mRNA in the presence of chemical substance/The level of expressed mRNA in the absence of chemical substance (yeast gene YEL039C, cells incubated two hours with the chemical substance): 0.7
The level of expressed mRNA in the presence of chemical substance/The level of expressed mRNA in the absence of chemical substance (yeast gene YER178W): 0.9
The level of expressed mRNA in the presence of chemical substance/The level of expressed mRNA in the absence of chemical substance (yeast gene YFL057C): 5.9
The level of expressed mRNA in the presence of chemical substance/The level of expressed mRNA in the absence of chemical substance (yeast gene YFR053C): 1.4
The level of expressed mRNA in the presence of chemical substance/The level of expressed mRNA in the absence of chemical substance (yeast gene YGL018C, cells incubated two hours with the chemical substance): 1.0
The level of expressed mRNA in the presence of chemical substance/The level of expressed mRNA in the absence of chemical substance (yeast gene YGL062W): 1.3
The level of expressed mRNA in the presence of chemical substance/The level of expressed mRNA in the absence of chemical substance (yeast gene YGL187C, cells incubated two hours with the chemical substance): 0.8
The level of expressed mRNA in the presence of chemical substance/The level of expressed mRNA in the absence of chemical substance (yeast gene YGL191W, cells incubated two hours with the chemical substance): 1.6
The level of expressed mRNA in the presence of chemical substance/The level of expressed mRNA in the absence of chemical substance (yeast gene YGL205W, cells incubated two hours with the chemical substance): 0.9
The level of expressed mRNA in the presence of chemical substance/The level of expressed mRNA in the absence of chemical substance (yeast gene YGL256W, cells incubated two hours with the chemical substance): 5.3
The level of expressed mRNA in the presence of chemical substance/The level of expressed mRNA in the absence of chemical substance (yeast gene YGR043C): 3.7
The level of expressed mRNA in the presence of chemical substance/The level of expressed mRNA in the absence of chemical substance (yeast gene YGR062C, cells incubated two hours with the chemical substance, 25° C., YPD medium): 1.0
The level of expressed mRNA in the presence of chemical substance/The level of expressed mRNA in the absence of chemical substance (yeast gene YGR087C, cells incubated two hours with the chemical substance): 15.0
The level of expressed mRNA in the presence of chemical substance/The level of expressed mRNA in the absence of chemical substance (yeast gene YGR174C, cells incubated two hours with the chemical substance): 1.6
The level of expressed mRNA in the presence of chemical substance/The level of expressed mRNA in the absence of chemical substance (yeast gene YGR192C): 1.0
The level of expressed mRNA in the presence of chemical substance/The level of expressed mRNA in the absence of chemical substance (yeast gene YGR244C): 1.2
The level of expressed mRNA in the presence of chemical substance/The level of expressed mRNA in the absence of chemical substance (yeast gene YGR254W): 1.3
The level of expressed mRNA in the presence of chemical substance/The level of expressed mRNA in the absence of chemical substance (yeast gene YHR179W): 2.3
The level of expressed mRNA in the presence of chemical substance/The level of expressed mRNA in the absence of chemical substance (yeast gene YIL160C): 2.4
The level of expressed mRNA in the presence of chemical substance/The level of expressed mRNA in the absence of chemical substance (yeast gene YIR031C, cells incubated two hours with the chemical substance): 1.6
The level of expressed mRNA in the presence of chemical substance/The level of expressed mRNA in the absence of chemical substance (yeast gene YJL052W): 0.9
The level of expressed mRNA in the presence of chemical substance/The level of expressed mRNA in the absence of chemical substance (yeast gene YJL121C, cells incubated two hours with the chemical substance): 0.5
The level of expressed mRNA in the presence of chemical substance/The level of expressed mRNA in the absence of chemical substance (yeast gene YJL166W, cells incubated two hours with the chemical substance): 1.5
The level of expressed mRNA in the presence of chemical substance/The level of expressed mRNA in the absence of chemical substance (yeast gene YJL216C, cells incubated two hours with the chemical substance): 4.7
The level of expressed mRNA in the presence of chemical substance/The level of expressed mRNA in the absence of chemical substance (yeast gene YJR009C): 1.7
